Results taken from patent publication US20250129078A1, “ERBB2 INHIBITORS” (Cogent Biosciences, Inc., priority 2023, published 2025).
Where a name gives a salt, the structure may show the parent alone.

Legend:
ErbB2 V777L = ErbB2 V777L (Homo sapiens (Human), UniProt P04626, V777L); assay: ErbB enzyme assay (CisBio HTRF-KinEASE-TK), ErbB2 V777L; type: biochemical
How it was run: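 HTRF KinEASE-TK tyrosine-kinase read-out of substrate phosphorylation after a final 1 h at ambient temperature, from the 655/620 nm emission ratio.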

EGFR WT = EGFR WT (Homo sapiens (Human), UniProt P00533); assay: ErbB enzyme assay (CisBio HTRF-KinEASE-TK), EGFR WT; type: biochemical; conditions: ATP at Km (25 μM), 1 h incubation
EGFR WT, sequence (P00533 25-1210): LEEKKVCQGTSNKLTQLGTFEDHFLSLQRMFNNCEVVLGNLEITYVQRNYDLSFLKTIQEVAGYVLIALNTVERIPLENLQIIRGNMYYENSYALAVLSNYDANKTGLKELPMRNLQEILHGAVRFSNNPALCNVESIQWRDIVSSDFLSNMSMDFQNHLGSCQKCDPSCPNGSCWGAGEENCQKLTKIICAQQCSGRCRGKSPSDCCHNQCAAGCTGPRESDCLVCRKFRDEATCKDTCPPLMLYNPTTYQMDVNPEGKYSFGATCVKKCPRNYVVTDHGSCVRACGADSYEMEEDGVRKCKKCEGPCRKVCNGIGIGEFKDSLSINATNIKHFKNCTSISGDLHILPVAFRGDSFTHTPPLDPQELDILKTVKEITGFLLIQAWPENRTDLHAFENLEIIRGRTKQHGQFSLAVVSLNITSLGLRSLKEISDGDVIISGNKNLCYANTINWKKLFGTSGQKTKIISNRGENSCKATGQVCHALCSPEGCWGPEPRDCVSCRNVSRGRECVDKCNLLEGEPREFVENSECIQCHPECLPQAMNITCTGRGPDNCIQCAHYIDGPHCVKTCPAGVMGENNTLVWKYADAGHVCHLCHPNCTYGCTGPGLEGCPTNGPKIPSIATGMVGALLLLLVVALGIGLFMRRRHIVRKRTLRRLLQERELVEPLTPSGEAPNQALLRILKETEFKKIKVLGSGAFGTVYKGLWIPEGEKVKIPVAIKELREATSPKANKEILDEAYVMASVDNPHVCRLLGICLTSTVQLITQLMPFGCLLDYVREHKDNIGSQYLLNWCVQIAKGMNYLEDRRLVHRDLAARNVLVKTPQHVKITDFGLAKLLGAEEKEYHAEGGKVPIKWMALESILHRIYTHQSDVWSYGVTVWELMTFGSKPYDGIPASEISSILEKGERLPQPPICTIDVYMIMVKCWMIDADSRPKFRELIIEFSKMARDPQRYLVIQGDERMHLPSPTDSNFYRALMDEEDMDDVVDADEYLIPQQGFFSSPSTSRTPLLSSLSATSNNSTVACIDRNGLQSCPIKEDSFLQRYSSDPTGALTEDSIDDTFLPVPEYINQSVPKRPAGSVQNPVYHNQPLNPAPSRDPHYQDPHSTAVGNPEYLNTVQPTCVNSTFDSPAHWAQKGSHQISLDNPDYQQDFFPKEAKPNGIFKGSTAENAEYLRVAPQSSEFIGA
How it was run: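 Potency comes from a homogeneous time-resolved fluorescence kinase format measuring tyrosine substrate phosphorylation. Reactions and detection steps each run 1 h at ambient temperature. IC50 values are interpolated from 4-parameter logistic fits of percent-of-control data.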

ErbB2 V777L, sequence (P04626 23-1255 V777L): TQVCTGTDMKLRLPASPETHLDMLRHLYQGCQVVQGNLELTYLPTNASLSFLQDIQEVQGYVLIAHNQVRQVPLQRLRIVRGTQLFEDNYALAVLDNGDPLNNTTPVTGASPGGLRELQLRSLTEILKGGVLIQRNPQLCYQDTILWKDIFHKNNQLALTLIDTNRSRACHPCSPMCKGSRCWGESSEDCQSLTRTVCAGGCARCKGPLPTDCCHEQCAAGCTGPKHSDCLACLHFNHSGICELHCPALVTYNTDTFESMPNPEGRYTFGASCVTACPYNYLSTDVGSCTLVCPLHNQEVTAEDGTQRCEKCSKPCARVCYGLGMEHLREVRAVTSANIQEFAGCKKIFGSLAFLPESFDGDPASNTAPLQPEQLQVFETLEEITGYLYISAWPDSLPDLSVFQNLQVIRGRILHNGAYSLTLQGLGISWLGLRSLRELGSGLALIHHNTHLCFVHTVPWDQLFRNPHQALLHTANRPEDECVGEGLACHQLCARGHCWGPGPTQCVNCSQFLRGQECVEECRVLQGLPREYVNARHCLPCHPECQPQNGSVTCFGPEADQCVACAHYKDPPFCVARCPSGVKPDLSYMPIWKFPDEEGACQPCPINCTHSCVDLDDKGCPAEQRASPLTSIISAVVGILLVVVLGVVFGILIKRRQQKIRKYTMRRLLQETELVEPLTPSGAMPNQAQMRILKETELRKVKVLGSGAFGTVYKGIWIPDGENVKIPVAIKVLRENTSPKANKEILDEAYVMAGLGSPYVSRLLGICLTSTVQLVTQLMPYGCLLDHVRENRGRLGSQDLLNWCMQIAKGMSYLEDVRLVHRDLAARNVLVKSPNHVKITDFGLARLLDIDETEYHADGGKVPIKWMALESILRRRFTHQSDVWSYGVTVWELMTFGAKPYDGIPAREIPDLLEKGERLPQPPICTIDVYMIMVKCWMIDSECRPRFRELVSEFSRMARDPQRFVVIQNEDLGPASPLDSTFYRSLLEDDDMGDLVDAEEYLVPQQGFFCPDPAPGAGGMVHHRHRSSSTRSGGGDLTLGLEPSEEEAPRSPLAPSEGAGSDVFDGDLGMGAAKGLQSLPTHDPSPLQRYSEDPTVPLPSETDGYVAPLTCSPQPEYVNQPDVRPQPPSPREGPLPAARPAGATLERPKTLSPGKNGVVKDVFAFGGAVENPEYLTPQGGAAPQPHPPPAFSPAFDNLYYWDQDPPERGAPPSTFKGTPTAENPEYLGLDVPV

SMILES | IC50 (ErbB2 V777L) [nM] | IC50 (EGFR WT) [nM]
C=CC(=O)N1CCN(c2ncc3ncnc(Nc4ccc(Oc5cnc6c(c5)ncn6C(F)F)c(C)c4F)c3n2)C[C@H]1C [Compound 177, (R)-1-(4-(8-((4-((3-(difluoromethyl)-3H-imidazo[4,5-b]pyridin-6-yl)oxy)-2-fluoro-3-methylphenyl)amino)pyrimido[5,4-d]pyrimidin-2-y1)-2-methylpiperazin-1-yl)prop-2-en-1-one] | 100 to 500 | < 50
C=CC(=O)N1CC2CC1CN(c1ncc3ncnc(Nc4ccc(Oc5cc(F)c6c(c5)ncn6C)c(C)c4F)c3n1)C2 (stereo not shown) [Compound 147, 1-(3-(8-((2-fluoro-4-((7-fluoro-1-methyl-1H-benzo[d]imidazol-5-yl)oxy)-3-methylphenyl)amino)pyrimido[5,4-d]pyrimidin-2-y1)-3,6-diazabicyclo[3.2.1]octan-6-yl)prop-2-en-1-one] | 50 to 100 | < 50
C=CC(=O)N1CCN(c2ncc3ncnc(Nc4ccc(Oc5cnc6c(c5)ncn6C)c(C)c4F)c3n2)C[C@H]1C [Compound 158, (R)-1-(4-(8-((2-fluoro-3-methyl-4-((3-methyl-3H-imidazo[4,5-b]pyridin-6-yl)oxy)phenyl)amino)pyrimido[5,4-d]pyrimidin-2-y1)-2-methylpiperazin-1-yl)prop-2-en-1-one] | 100 to 500 | 100 to 500
C=CC(=O)N[C@H]1CCCCN(c2ncc3ncnc(Nc4ccc(Oc5ccc6c(c5)nnn6C)c(C)c4F)c3n2)C1 [Compound 173, (S)-N-(1-(8-((2-fluoro-3-methyl-4-((1-methyl-1H-benzo[d][1,2,3]triazol-5-yl)oxy)phenyl)amino)pyrimido[5,4-d]pyrimidin-2-yl)azepan-3-yl)acrylamide] | 50 to 100 | 100 to 500
Cc1cc(Nc2ncnc3cnc(N4CCN(C(=O)/C=C/CN5CCOCC5)CC4)nc23)ccc1Oc1ccc2c(c1)nnn2C [Compound 53, (E)-1-(4-(8-((3-methyl-4-((1-methyl-1H-benzo[d][1,2,3]triazol-5-yl)oxy)phenyl)amino)pyrimido [5,4-d]pyrimidin-2-yl)piperazin-1-yl)-4-morpholinobut-2-en-1-one formate] | 100 to 500 | 100 to 500
C=CC(=O)N1C2CCCC1CC(c1ccc3ncnc(Nc4cc(C)c(Oc5ccc6c(c5)nnn6C)cc4OC)c3n1)C2 (stereo not shown) [Compound 401, 1-(3-(4-((2-methoxy-5-methyl-4-((1-methyl-1H-benzo[d][1,2,3]triazol-5-yl)oxy)phenyl)amino)pyrido[3,2-d]pyrimidin-6-yl)-9-azabicyclo[3.3.1]nonan-9-yl)prop-2-en-1-one trifluoroacetatexc] | 50 to 100 | 100 to 500
C=CC(=O)N1CCN(c2ccc3ncnc(Nc4ccc(Oc5cc6nnn(C)c6c(F)c5C)c(C)c4)c3n2)C[C@H]1C [Compound 299, (R)-1-(4-(4-((4-((7-fluoro-1,6-dimethyl-1H-benzo[d][1,2,3]triazol-5-yl)oxy)-3-methylphenyl)amino)pyrido[3,2-d]pyrimidin-6-yl)-2-methylpiperazin-1-yl)prop-2-en-1-one] | 100 to 500 | ≥ 1000
C=CC(=O)N1CC[C@H]2CN(c3ncc4ncnc(Nc5ccc(Oc6ccc7c(c6)nnn7C)c(C)c5)c4n3)C[C@H]21 [Compound 149, 1-((3aS,6aS)-5-(8-((3-methyl-4-((1-methyl-1H-benzo[d][1,2,3]triazol-5-yl)oxy)phenyl)amino)pyrimido [5,4-d]pyrimidin-2-yl)hexahydropyrrolo[3,4-b]pyrrol-1(2H)-y1)prop-2-en-1-one] | 100 to 500 | 500 to 1000
C=CC(=O)NC1(C(F)(F)F)CCN(c2ccc3ncnc(Nc4ccc(Oc5ccc6c(c5)nnn6C)c(C)c4F)c3n2)CC1 [Compound 345, N-(1-(4-((2-fluoro-3-methyl-4-((1-methyl-1H-benzo[d][1,2,3]triazol-5-yl)oxy)phenyl)amino)pyrido[3,2-d]pyrimidin-6-yl)-4-(trifluoromethyl)piperidin-4-yl)acrylamide] | 100 to 500 | 100 to 500
C=CC(=O)N1CCN(c2ccc3ncnc(Nc4ccc(Oc5ccc6c(c5)nnn6C)c(C)c4)c3n2)C[C@H]1C1CC1 [Compound 335, (R)-1-(2-cyclopropyl-4-(4-((3-methyl-4-((1-methyl-1H-benzo[d][1,2,3]triazol-5-yl)oxy)phenyl)amino)pyrido[3,2-d]pyrimidin-6-yl)piperazin-1-yl)prop-2-en-1-one] | 50 to 100 | 100 to 500
C=CC(=O)NC1CCN(c2ccc3ncnc(Nc4ccc(Oc5ccc6c(c5)nnn6C)c(C)c4F)c3n2)CC1 [Compound 272, N-(1-(4-((2-fluoro-3-methyl-4-((1-methyl-1H-benzo[d][1,2,3]triazol-5-yl)oxy)phenyl)amino)pyrido[3,2-d]pyrimidin-6-yl)piperidin-4-yl)acrylamide] | 100 to 500 | 100 to 500
C=CC(=O)N1C2CCC1CN(c1ncc3ncnc(Nc4ccc(Oc5cnc6c(c5)ncn6C)c(C)c4)c3n1)C2 [Compound 134, 1-(3-(8-((3-methyl-4-((3-methyl-3H-imidazo[4,5-b]pyridin-6-yl)oxy)phenyl)amino)pyrimido[5,4-d]pyrimidin-2-yl)-3,8-diazabicyclo[3.2.1]octan-8-yl)prop-2-en-1-one] | 50 to 100 | 100 to 500
C=CC(=O)N1CCN(c2ncc3ncnc(Nc4cc(C)c(Oc5ccc6c(c5)nnn6C)c(F)c4)c3n2)C[C@H]1C [Compound 155, (R)-1-(4-(8-((3-fluoro-5-methyl-4-((1-methyl-1H-benzo[d][1,2,3]triazol-5-yl)oxy)phenyl)amino)pyrimido[5,4-d]pyrimidin-2-y1)-2-methylpiperazin-1-yl)prop-2-en-1-one] | 100 to 500 | 500 to 1000
C=C(COC)C(=O)N1CCN(c2ccc3ncnc(Nc4ccc(Oc5ccc6c(c5)nnn6C)c(C)c4)c3n2)CC1 [Compound 366, 2-(methoxymethyl)-1-(4-(4-((3-methyl-4-((1-methyl-1H-benzo[d][1,2,3]triazol-5-yl)oxy)phenyl)amino)pyrido[3,2-d]pyrimidin-6-yl)piperazin-1-yl)prop-2-en-1-one] | 500 to 1000 | ≥ 1000
C=CC(=O)N1CCN(c2ccc3ncnc(Nc4ccc(Oc5ccc6c(c5)nnn6C)c(C)c4F)c3n2)C[C@@H]1C [Compound 325, (S)-1-(4-(4-((2-fluoro-3-methyl-4-((1-methyl-1H-benzo[d][1,2,3]triazol-5-yl)oxy)phenyl)amino)pyrido[3,2-d]pyrimidin-6-yl)-2-methylpiperazin-1-yl)prop-2-en-1-one] | 100 to 500 | 100 to 500
C=C(F)C(=O)N1CCN(c2ccc3ncnc(Nc4ccc(Oc5ccc6c(c5)nnn6C)c(C)c4)c3n2)CC1 [Compound 245, 2-fluoro-1-(4-(4-((3-methyl-4-((1-methyl-1H-benzo[d][1,2,3]triazol-5-yl)oxy)phenyl)amino)pyrido[3,2-d]pyrimidin-6-yl)piperazin-1-yl)prop-2-en-1-one] | 100 to 500 | 500 to 1000
C=CC(=O)N1CCN(c2ncc3ncnc(Nc4ccc(Oc5ccc6c(c5)nnn6C)c(C)c4F)c3c2F)CC1 [Compound 103, 1-(4-(5-fluoro-4-((2-fluoro-3-methyl-4-((1-methyl-1H-benzo[d][1,2,3]triazol-5-yl)oxy)phenyl)amino)pyrido[3,4-d]pyrimidin-6-yl)piperazin-1-yl)prop-2-en-1-one] | 100 to 500 | 100 to 500
C=CC(=O)N1CCN(c2ncc3ncnc(Nc4ccc(Oc5cc6nnn(C)c6c(C)c5F)c(C)c4F)c3n2)C[C@H]1C [Compound 180, (R)-1-(4-(8-((2-fluoro-4-((6-fluoro-1,7-dimethyl-1H-benzo[d][1,2,3]triazol-5-yl)oxy)-3-methylphenyl)amino)pyrimido[5,4-d]pyrimidin-2-y1)-2-methylpiperazin-1-yl)prop-2-en-1-one] | 50 to 100 | 50 to 100
Cc1cc(Nc2ncnc3cnc(N4CCN(C(=O)/C=C/CO)CC4)nc23)ccc1Oc1ccc2c(c1)nnn2C [Compound 57, (E)-4-hydroxy-1-(4-(8-((3-methyl-4-((1-methyl-1H-benzo[d][1,2,3]triazol-5-yl)oxy)phenyl)amino)pyrimido [5,4-d]pyrimidin-2-yl)piperazin-1-yl)but-2-en-1-one] | 100 to 500 | 100 to 500
C=CC(=O)N1CCC(c2ccc3ncnc(Nc4ccc(Oc5ccc6c(c5)nnn6C)c(C)c4)c3n2)CC1 [Compound 108, 1-(4-(4-((3-methyl-4-((1-methyl-1H-benzo[d][1,2,3]triazol-5-yl)oxy)phenyl)amino)pyrido[3,2-d]pyrimidin-6-yl)piperidin-1-yl)prop-2-en-1-one] | 100 to 500 | 100 to 500
C=CC(=O)N1CCN(c2ccc3ncnc(Nc4ccc(Oc5ccc6c(c5)ncn6C(F)F)c(C)c4F)c3n2)CC1(C)C [Compound 321, 1-(4-(4-((4-((1-(difluoromethyl)-1H-benzo[d]imidazol-5-yl)oxy)-2-fluoro-3-methylphenyl)amino)pyrido[3,2-d]pyrimidin-6-y1)-2,2-dimethylpiperazin-1-yl)prop-2-en-1-one] | 100 to 500 | 500 to 1000
C=CC(=O)N1CCN(c2ncc3ncnc(Nc4ccc(Oc5ccc6c(c5)nnn6C)c(C)c4C)c3n2)CC1 [Compound 65, 1-[4-[4-[2,3-dimethyl-4-(1-methylbenzotriazol-5-yl)oxy-anilino]pyrimido[5,4-d]pyrimidin-6-yl]piperazin-1-yl] prop-2-en-1-one] | 100 to 500 | 100 to 500
C=CC(=O)N1C[C@@H](C)N(c2ncc3ncnc(Nc4ccc(Oc5ccc6c(c5)nnn6C)c(C)c4)c3n2)C[C@@H]1C [Compound 188, 1-((2S,5R)-2,5-dimethyl-4-(8-((3-methyl-4-((1-methyl-1H-benzo[d][1,2,3]triazol-5-yl)oxy)phenyl)amino)pyrimido[5,4-d]pyrimidin-2-yl)piperazin-1-yl)prop-2-en-1-one] | 500 to 1000 | ≥ 1000
